Measurements from PMC11448502, “Cryo-EM structures of the human P2X1 receptor reveal subtype-specific architecture and antagonism by supramolecular ligand-binding” (Nature Communications, 2024).
Numbering of substitutions follows the chain as printed. pEC50: −log10 of the molar value. “And” between values parts separate entries of the source, which are not always exact repeats. Equal entries are not always repeated. “Also recorded” adds a separate entry of the source.

Experiments:
P2X1 = tested on: P2X1; set-up: method as in doi: 10.1111/bph.15299; details: reviewer comment, ref doi: 10.1111/bph.15299, read-out: EC50 of ATP; cited from earlier work
P2X3 = tested on: P2X3; set-up: method as in doi: 10.1111/bph.15299; details: reviewer comment, ref doi: 10.1111/bph.15299, read-out: EC50 of ATP; cited from earlier work
hP2X1 K136A = molecular target: T1, hP2X1 K136A (Homo sapiens, UniProt P51575, K136A); assay: ATP dose response (EC50), TEVC in oocytes; type: cell-based
T1 construct: hP2X1 mRNA that was made from linearized full-length wild-type or mutant pcDNA 3.1x; expressed in transfected cells; host or cells: Xenopus laevis oocytes (mRNA injection)
T1 sequence (P51575 1-399 K136A): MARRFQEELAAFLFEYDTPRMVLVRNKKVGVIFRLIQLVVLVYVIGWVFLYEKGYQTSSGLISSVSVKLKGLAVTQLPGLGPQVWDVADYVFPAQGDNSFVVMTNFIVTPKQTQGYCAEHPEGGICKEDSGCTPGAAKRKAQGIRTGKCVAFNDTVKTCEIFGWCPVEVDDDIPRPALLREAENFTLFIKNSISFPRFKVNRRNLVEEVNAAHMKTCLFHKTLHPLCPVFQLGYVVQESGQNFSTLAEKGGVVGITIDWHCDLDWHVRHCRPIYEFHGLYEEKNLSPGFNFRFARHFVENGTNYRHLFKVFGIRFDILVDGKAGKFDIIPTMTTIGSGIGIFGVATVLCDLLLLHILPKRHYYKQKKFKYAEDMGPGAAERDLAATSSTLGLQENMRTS
Protocol: (§1) Oocytes were purchased defolliculated from Ecocyte Bioscience in Barth’s Solution (88 mM NaCl, 1 mM KCl, 0.82 mM MgSO4, 0.33 mM Ca(NO3)2, 0.41 mM CaCl2, 2.4 mM NaHCO3, 5 mM Tris-HCl) supplemented with penicillin (100 U/mL) and streptomycin (100 µg/mL). Xenopus laevis oocytes were then injected with 50 nL of 100 ng/μL hP2X1 mRNA that was made from linearized full-length wild-type or mutant pcDNA 3.1x according to the protocol provided in the mMessage mMachine kit (Invitrogen). Injected oocytes were allowed to express for ~20 hours at 18 °C before recording was performed.
(§2) Data acquisition was performed using the Oocyte Clamp OC-725C amplifier and pClamp 8.2 software. Buffers were applied using a gravity fed RSC-200 Rapid Solution Changer that flows at ~5 mL/min. All experiments use Sutter filamented glass 10 cm in length with an inner diameter of 0.69 mm and an outer diameter of 1.2 mm to impale oocytes and clamp the holding voltage at −60 mV. Experiments were recorded in buffer containing 10 mM HEPES (pH 7.4), 140 mM NaCl, 5 mM KCl, 2 mM CaCl2, 2 mM MgCl2, and 10 mM glucose.
(§3) Excitatory responses to a dilution series of ATP between 6.4 nM and 10 mM were examined across the different mutants. Each evoked response was normalized to an initial ATP-induced current evoked by the following concentrations: 500 µM ATP for R292A, 2 mM ATP for K309A, and 100 µM ATP for the remaining mutants and wild-type receptor. The data was fit in Prism 9 using the nonlinear regression named “EC50, x is concentration” to afford EC50 values. This value was then averaged amongst each singular condition and reported as an average plus or minus the standard deviation.

hP2X1 R292A = molecular target: T2, hP2X1 R292A (Homo sapiens, UniProt P51575, R292A); assay: ATP dose response (EC50), TEVC in oocytes; type: cell-based
T2 construct: hP2X1 mRNA that was made from linearized full-length wild-type or mutant pcDNA 3.1x; expressed in transfected cells; host or cells: Xenopus laevis oocytes (mRNA injection)
T2 sequence (P51575 1-399 R292A): T1 sequence (P51575 1-399 K136A) with A136K, R292A
Protocol: as §1, §2, §3

hP2X1 K140A = molecular target: T3, hP2X1 K140A (Homo sapiens, UniProt P51575, K140A); assay: ATP dose response (EC50), TEVC in oocytes; type: cell-based; details: for Normalized Current: hP2X1 K140A
T3 construct: hP2X1 mRNA that was made from linearized full-length wild-type or mutant pcDNA 3.1x; expressed in transfected cells; host or cells: Xenopus laevis oocytes (mRNA injection)
T3 sequence (P51575 1-399 K140A): T1 sequence (P51575 1-399 K136A) with A136K, K140A
Protocol: as §1, §2, §3

hP2X1 K249A = molecular target: T4, hP2X1 K249A (Homo sapiens, UniProt P51575, K249A); assay: ATP dose response (EC50), TEVC in oocytes; type: cell-based; details: for Normalized Current: hP2X1 K249A
T4 construct: hP2X1 mRNA that was made from linearized full-length wild-type or mutant pcDNA 3.1x; expressed in transfected cells; host or cells: Xenopus laevis oocytes (mRNA injection)
T4 sequence (P51575 1-399 K249A): T1 sequence (P51575 1-399 K136A) with A136K, K249A
Protocol: as §1, §2, §3

Nc1ncnc2c1ncn2[C@@H]1O[C@H](COP(=O)(O)OP(=O)(O)OP(=O)(O)O)[C@@H](O)[C@H]1O [ATP]
pEC50 (P2X1): 6.00 to 6.30 | pEC50 (P2X3): 6.00 to 6.30 | EC50 of ATP (hP2X1 K136A; TEVC): did not affect | Normalized Current (hP2X1 K136A; [ATP] 1.000E-04 M): 0.9825 and 0.9019 and 0.8989 | Normalized Current (hP2X1 K136A; [ATP] 2.000E-05 M): 0.8446 and 0.8328 and 0.7216 | Normalized Current (hP2X1 K136A; [ATP] 4.000E-06 M): 0.7216 and 0.6921 and 0.6232 | Normalized Current (hP2X1 K136A; [ATP] 5.000E-04 M): 1.035 and 0.9912 and 0.9735 | Normalized Current (hP2X1 K136A; [ATP] 8.000E-07 M): 0.3703 and 0.2936 and 0.2241 | EC50 of ATP (hP2X1 R292A; TEVC): impacted | Normalized Current (hP2X1 R292A; [ATP] 1.000E-04 M): 0.772 and 0.7521 and 0.7236 | Normalized Current (hP2X1 R292A; [ATP] 1.600E-07 M): 0.000000 | Normalized Current (hP2X1 R292A; [ATP] 2.000E-05 M): 0.2643 and 0.1768 and 0.1722 | Normalized Current (hP2X1 R292A; [ATP] 2.500E-03 M): 1.04 and 1.022 and 0.9381 | Normalized Current (hP2X1 R292A; [ATP] 5.000E-04 M): 0.9697 and 0.8815 and 0.878 | apparent affinity (EC50) of ATP, effect of mutation (hP2X1 K140A; hP2X1 K140A vs wild-type, TEVC): do not appear to significantly change; also recorded: no major effect; also recorded: did not impact | Normalized Current (hP2X1 K140A; [ATP] 1.000E-04 M): 1.047 and 0.9489 and 0.9169 | Normalized Current (hP2X1 K140A; [ATP] 4.000E-06 M): 0.661 and 0.6317 and 0.5508 | Normalized Current (hP2X1 K140A; [ATP] 5.000E-04 M): 1.045 and 0.9875 and 0.9677 | apparent affinity (EC50) of ATP, effect of mutation (hP2X1 K249A; hP2X1 K249A vs wild-type, TEVC): do not appear to significantly change; also recorded: no major effect; also recorded: moderately increases | Normalized Current (hP2X1 K249A; [ATP] 1.000E-04 M): 1.03 and 1.005 and 0.9647 | Normalized Current (hP2X1 K249A; [ATP] 2.000E-05 M): 1.005 and 0.9326 and 0.8353 | Normalized Current (hP2X1 K249A; [ATP] 4.000E-06 M): 0.7721 and 0.7584 and 0.7231 | Normalized Current (hP2X1 K249A; [ATP] 8.000E-07 M): 0.6172 and 0.5832 and 0.5545
